From publication PMC7176418 (Science Advances, 2020)

What was measured:
Test in all cases: biolayer interferometry
Format in all cases: binding
[1] = target: T1, Slug (Snail2) (Homo sapiens, UniProt O43623)
T1 sequence (O43623 1-268): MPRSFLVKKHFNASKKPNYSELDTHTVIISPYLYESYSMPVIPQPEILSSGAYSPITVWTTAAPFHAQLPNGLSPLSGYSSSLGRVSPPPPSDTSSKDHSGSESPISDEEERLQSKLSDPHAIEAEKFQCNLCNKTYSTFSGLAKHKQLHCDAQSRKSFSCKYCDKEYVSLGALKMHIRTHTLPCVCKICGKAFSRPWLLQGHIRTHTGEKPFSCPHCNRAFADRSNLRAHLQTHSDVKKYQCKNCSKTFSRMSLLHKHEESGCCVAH

[2] = target: Snail (Homo sapiens, UniProt O95863, R174A)
[3] = target: Snail (Homo sapiens, UniProt O95863)
Chain of Snail (Homo sapiens, UniProt O95863) (O95863 whole entry): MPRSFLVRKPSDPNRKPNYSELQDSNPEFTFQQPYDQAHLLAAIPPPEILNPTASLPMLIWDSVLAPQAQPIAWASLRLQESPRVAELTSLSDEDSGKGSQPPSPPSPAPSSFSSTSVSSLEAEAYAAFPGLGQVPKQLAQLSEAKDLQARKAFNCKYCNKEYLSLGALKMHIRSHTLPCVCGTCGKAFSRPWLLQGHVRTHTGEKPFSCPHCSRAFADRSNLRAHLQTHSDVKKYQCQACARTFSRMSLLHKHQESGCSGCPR

Chain of Snail (Homo sapiens, UniProt O95863, R174A) (O95863 whole entry R174A): as the sequence (O95863 whole entry) above, with R174A counted along it

Cc1cc(Nc2nc(SCc3ccc(C(=O)Nc4ccc(F)cc4N)cc3)nn3cccc23)n[nH]1 [CYD19]
Kd [1]: 600 nM | Kd [2]: 3000 nM | Kd [3]: 180 nM
